# Experimental data taken from article PMC8034821 (The Journal of Venomous Animals and Toxins Including …, 2021).
# System: krait (Bungarus sindanus) venom acetylcholinesterase (AChE)
# Assay: Ellman (DTNB) assay, Lineweaver-Burk plot
# Format: biochemical
# Conditions: no inhibitor; 50 mM phosphate pH 7.4; 25 or 37 °C (both printed); crude venom
smiles,measurement,value
CC(=O)SCC[N+](C)(C)C [AcSCh],Km,74.1 µM
